According to patent US20160278375A1, “BISCATIONIC AND TRISCATIONIC AMPHIPHILES AS ANTIMICROBIAL AGENTS” (Temple University of the Commonwealth System of Higher …, priority 2013, published 2016):
Read-outs that look alike come from different tables or passages of the source.

Experiments:
Test in all cases: MIC determination by two-fold serial dilution in 96-well microtiter plates
Type in all cases: cell-based
[1] = test system: Enterococcus faecalis (OG1RF)
Protocol: (§1) For the compounds above, respective minimum inhibitory concentration (MIC) values against the Gram-positive S. aureus, E. faecalis, Gram-negative E. coli and P. aeruginosa were determined, respectively, by standard methods. […] Cell viability was verified by serial dilution and plating on MH agar. Both aqueous and fresh media positive controls were performed for each trial. Overnight bacterial cultures of Staphylococcus aureus (SH1000), Enterococcus faecalis (OG1RF), Escherichia coli (MC4100), and Pseudomonas aeruginosa (PAO1-WT) were grown in Mueller-Hinton broth at 37° C., with all but E. faecalis under shaking Overnight cultures were diluted to approximately 10^6 cfu/mL as determined by OD measurement at 640 nm and plating on MH agar.
(§2) Each compound was serially diluted two-fold with water from 1 mM down to 1 μM yielding twelve dilutions per compound. In triplicate, 100 µL of each dilution were pipetted into the appropriate well of a 96-well microtiter plate, and then […] of overnight bacterial culture diluted to ca. 10^6 cfu/mL were inoculated into each well. Microtiter plates were incubated at 37° C. for 72 hours. Up to seven compounds were tested against one bacterial species at twelve decreasing concentrations per 96-well plate.

[2] = test system: Escherichia coli (MC4100); conditions: for MIC E. coli: Table 2, trisamine compounds; for MIC: Escherichia coli
Protocol: as §1, §2

[3] = test system: Pseudomonas aeruginosa (PAO1-WT)
Protocol: as §1, §2

[4] = test system: Staphylococcus aureus (SH1000)
Protocol: as §1, §2

[5] = Table 2, trisamine compounds, read-out: MIC E faecalis
[6] = Table 2, trisamine compounds, read-out: MIC P aeruginosa
[7] = Table 2, trisamine compounds, read-out: MIC S. aureus
[8] = Enterococcus faecalis, Table 1, 37° C., 72 hours, read-out: MIC, Gram positive E. faecalis
[9] = 72 h, read-out: MIC, Gram negative E. coli
[10] = Pseudomonas aeruginosa, PAO1, Table 1, 37° C., 72 hours, read-out: MIC, Gram negative P. aeruginosa
[11] = Staphylococcus aureus, Table 1, 37° C., 72 hours, read-out: MIC, Gram positive S. aureus
[12] = Table 1, 37° C., 72 hours, read-out: MIC, Gram negative E. coli

CCCCCCCCCC[N+](C)(C)CCN(C)CC[N+](C)(C)CCCCCCCCCC.[Br-].[Br-] [10, 2, 0, 2, 10]
MIC [1, 5]: 8 µM
MIC E. coli [2]: 8 µM
MIC [3, 6]: 32 µM
MIC [4, 7]: 2 µM

CCCCCCCCCCCC[N+](C)(C)CCN(C)CC[N+](C)(C)CCCCCCCCCCCC.[Br-].[Br-] [12, 2, 0, 2, 12]
MIC [1, 5]: 2 µM
MIC E. coli [2]: 1 µM
MIC [3, 6]: 4 µM
MIC [4, 7]: 1 µM

CCCCCCCCCCCCCC[N+](C)(C)CCN(C)CC[N+](C)(C)CCCCCCCCCCCCCC [14, 2, 0, 2, 14]
MIC ([1]; Enterococcus faecalis, Table 2, trisamine compounds, read-out: MIC E faecalis): 2 µM
MIC ([2]; read-out: MIC E. coli): 4 µM
MIC ([3]; Pseudomonas aeruginosa, PAO1, Table 2, trisamine compounds, read-out: MIC P aeruginosa): 32 µM
MIC ([4]; Staphylococcus aureus, Table 2, trisamine compounds, read-out: MIC S. aureus): 2 µM

CCCCCCCC[N+](C)(C)CC[N+](C)(C)CCCCCCCC [(8, 2, 8)]
MIC [1, 8]: 500 µM
MIC [2, 9]: 250 µM
MIC [3, 10]: 500 µM
MIC [4, 11]: 32 µM

CCCCCCCCCC[N+](C)(C)CCN(C)C [(10, 2, 0)]
MIC [1, 8]: 250 µM
MIC [2, 12]: 250 µM
MIC [3, 10]: 250 µM
MIC [4, 11]: 63 µM

CCCCCCCCCC[N+](C)(C)CC[N+](C)(C)CCCCCCCC [(10, 2, 8)]
MIC [1, 8]: 63 µM
MIC [2, 9]: 63 µM
MIC [3, 10]: 125 µM
MIC [4, 11]: 8 µM

CCCCCCCCCC[N+](C)(C)CC[N+](C)(C)CCCCCCCCCC [(10, 2, 10)]
MIC [1, 8]: 8 µM
MIC [2, 9]: 16 µM
MIC [3, 10]: 8 µM
MIC [4, 11]: 2 µM

CCCCCCCCCCC[N+](C)(C)CC[N+](C)(C)CCCCCCCCCC [(11, 2, 10)]
MIC ([1]; Enterococcus faecalis, 72 h, read-out: MIC, Gram positive E. faecalis): 4 µM
MIC [2, 9]: 4 µM
MIC ([3]; Pseudomonas aeruginosa, PAO1, 72 h, read-out: MIC, Gram negative P. aeruginosa): 4 µM
MIC ([4]; Staphylococcus aureus, 72 h, read-out: MIC, Gram positive S. aureus): 1 µM

CCCCCCCCCCCC[N+](C)(C)CCN(C)C [(12, 2, 0)]
MIC [1, 8]: 63 µM
MIC [2, 12]: 63 µM
MIC [3, 10]: 250 µM
MIC [4, 11]: 32 µM

CCCCCCCCCCCC[N+](C)(C)CC[N+](C)(C)CCCCCCCC [(12, 2, 8)]
MIC [1, 8]: 4 µM
MIC [2, 9]: 4 µM
MIC [3, 10]: 4 µM
MIC [4, 11]: 1 µM

CCCCCCCCCCCC[N+](C)(C)CC[N+](C)(C)CCCCCCCCCC [(12, 2, 10)]
MIC [1, 8]: 2 µM
MIC [2, 9]: 2 µM
MIC [3, 10]: 2 µM
MIC [4, 11]: 1 µM

CCCCCCCCCCCC[N+](C)(C)CC[N+](C)(C)CCCCCCCCCCCC [(12, 2, 12)]
MIC [1, 8]: 1 µM
MIC [2, 9]: 2 µM
MIC [3, 10]: 4 µM
MIC [4, 11]: 1 µM

CCCCCCCCCCCCCC[N+](C)(C)CCN(C)C [(14, 2, 0)]
MIC [1, 8]: 8 µM
MIC [2, 12]: 16 µM
MIC [3, 10]: 125 µM
MIC [4, 11]: 2 µM

CCCCCCCCCCCCCC[N+](C)(C)CC[N+](C)(C)CCCCCCCC [(14, 2, 8)]
MIC [1, 8]: 2 µM
MIC [2, 9]: 2 µM
MIC [3, 10]: 4 µM
MIC [4, 11]: 1 µM

CCCCCCCCCCCCCC[N+](C)(C)CC[N+](C)(C)CCCCCCCCCC [(14, 2, 10)]
MIC [1, 8]: 1 µM
MIC [2, 9]: 2 µM
MIC [3, 10]: 4 µM
MIC [4, 11]: 4 µM

CCCCCCCCCCCCCC[N+](C)(C)CC[N+](C)(C)CCCCCCCCCCCC [(14, 2, 12)]
MIC [1, 8]: 2 µM
MIC [2, 9]: 2 µM
MIC [3, 10]: 8 µM
MIC [4, 11]: 1 µM

CCCCCCCCCCCCCC[N+](C)(C)CC[N+](C)(C)CCCCCCCCCCCCCC [(14, 2, 14)]
MIC [1, 8]: 2 µM
MIC [2, 9]: 4 µM
MIC [3, 10]: 32 µM
MIC [4, 11]: 4 µM

CCCCCCCCCCCCCCCC[N+](C)(C)CCN(C)C [(16, 2, 0)]
MIC [1, 8]: 16 µM
MIC [2, 12]: 16 µM
MIC [3, 10]: 16 µM
MIC [4, 11]: 1 µM

CCCCCCCCCCCCCCCC[N+](C)(C)CC[N+](C)(C)CCCCCCCC [(16, 2, 8)]
MIC [1, 8]: 2 µM
MIC [2, 9]: 2 µM
MIC [3, 10]: 4 µM
MIC [4, 11]: 2 µM

CCCCCCCCCCCCCCCC[N+](C)(C)CC[N+](C)(C)CCCCCCCCCC [(16, 2, 10)]
MIC [1, 8]: 4 µM
MIC [2, 9]: 8 µM
MIC [3, 10]: 32 µM
MIC [4, 11]: 4 µM

CCCCCCCCCCCCCCCC[N+](C)(C)CC[N+](C)(C)CCCCCCCCCCCC [(16, 2, 12)]
MIC [1, 8]: 4 µM
MIC [2, 9]: 8 µM
MIC [3, 10]: 32 µM
MIC [4, 11]: 8 µM

CCCCCCCCCCCCCCCC[N+](C)(C)CC[N+](C)(C)CCCCCCCCCCCCCC [(16, 2, 14)]
MIC [1, 8]: 2 µM
MIC [2, 9]: 16 µM
MIC [3, 10]: 63 µM
MIC [4, 11]: 8 µM

CCCCCCCCCCCCCCCC[N+](C)(C)CC[N+](C)(C)CCCCCCCCCCCCCCCC [(16, 2, 16)]
MIC [1, 8]: 8 µM
MIC [2, 9]: 32 µM
MIC [3, 10]: 63 µM
MIC [4, 11]: 8 µM

CCCCCCCCCCCCCCCCCC[N+](C)(C)CCN(C)C [(18, 2, 0)]
MIC [1, 8]: 4 µM
MIC [2, 12]: 63 µM
MIC ([3]; Table 1, 37° C., 72 hours, read-out: MIC, Gram negative P. aeruginosa): 63 µM
MIC [4, 11]: 2 µM

CCCCCCCCCCCCCCCCCC[N+](C)(C)CC[N+](C)(C)CCCCCCCC [(18, 2, 8)]
MIC [1, 8]: 2 µM
MIC [2, 9]: 8 µM
MIC [3, 10]: 32 µM
MIC [4, 11]: 2 µM

CCCCCCCCCCCCCCCCCC[N+](C)(C)CC[N+](C)(C)CCCCCCCCCC [(18, 2, 10)]
MIC [1, 8]: 2 µM
MIC [2, 9]: 16 µM
MIC [3, 10]: 32 µM
MIC [4, 11]: 4 µM

CCCCCCCCCCCCCCCCCC[N+](C)(C)CC[N+](C)(C)CCCCCCCCCCCC [(18, 2, 12)]
MIC [1, 8]: 4 µM
MIC [2, 9]: 16 µM
MIC [3, 10]: 32 µM
MIC [4, 11]: 4 µM

CCCCCCCCCCCCCCCCCC[N+](C)(C)CC[N+](C)(C)CCCCCCCCCCCCCC [(18, 2, 14)]
MIC [1, 8]: 16 µM
MIC [2, 9]: 16 µM
MIC [3, 10]: 63 µM
MIC [4, 11]: 8 µM

CCCCCCCCCCCCCCCCCC[N+](C)(C)CC[N+](C)(C)CCCCCCCCCCCCCCCC [(18, 2, 16)]
MIC [1, 8]: 32 µM
MIC [2, 9]: 32 µM
MIC [3, 10]: 63 µM
MIC [4, 11]: 16 µM

CCCCCCCCCCCCCCCCCC[N+](C)(C)CC[N+](C)(C)CCCCCCCCCCCCCCCCCC [(18, 2, 18)]
MIC [1, 8]: 63 µM
MIC [2, 9]: 250 µM
MIC [3, 10]: 500 µM
MIC [4, 11]: 32 µM

CCCCCCCCCCCCCCCCCCCC[N+](C)(C)CCN(C)C [(20, 2, 0)]
MIC [1, 8]: 4 µM
MIC [2, 12]: 63 µM
MIC [3, 10]: 125 µM
MIC [4, 11]: 4 µM

CCCCCCCCCCCCCCCCCCCC[N+](C)(C)CC[N+](C)(C)CCCCCCCC [(20, 2, 8)]
MIC [1, 8]: 4 µM
MIC [2, 9]: 16 µM
MIC [3, 10]: 32 µM
MIC [4, 11]: 4 µM

CCCCCCCCCCCCCCCCCCCC[N+](C)(C)CC[N+](C)(C)CCCCCCCCCC [(20, 2, 10)]
MIC [1, 8]: 16 µM
MIC [2, 9]: 16 µM
MIC [3, 10]: 16 µM
MIC [4, 11]: 4 µM

CCCCCCCCCCCCCCCCCCCC[N+](C)(C)CC[N+](C)(C)CCCCCCCCCCCC [(20, 2, 12)]
MIC [1, 8]: 4 µM
MIC [2, 9]: 32 µM
MIC [3, 10]: 63 µM
MIC [4, 11]: 8 µM

CCCCCCCCCCCCCCCCCCCC[N+](C)(C)CC[N+](C)(C)CCCCCCCCCCCCCC [(20, 2, 14)]
MIC [1, 8]: 16 µM
MIC [2, 9]: 16 µM
MIC [3, 10]: 63 µM
MIC [4, 11]: 8 µM
